In brackets after ≈: the same amount, converted by molar mass. Activity calls are given as the source filed them. The calls are words filed in the database; no cut-off is given here.
Experiments:
[1] = Inhibition of microtubule assembly by turbidimetry
P388 [2] = assay: In vivo cytotoxicity against mouse P388 cells; format: functional
P388 [3] = assay: In vivo cytotoxicity against mouse P388 cells assessed as increase in life extension at 2.75 to 11 mg/kg; format: functional; details: dose mg/kg 2.75-11
[4] = Displacement of [3H]colchicine from tubulin after 10 mins relative to control; parameters: concentration or dose not given beside the values

SMILES | ID50 [1] [µM] | ED50 (P388 [2]) | Activity (P388 [3]) [%] | Activity [4] [%]
COc1cc2c(c(OC)c1OC)-c1ccc(OC)c(=O)cc1[C@@H](NC(C)=O)CC2 | 6 |  |  | 
COc1cc(/C=C/c2ccc(OC)c(O[Si](C)(C)C(C)(C)C)c2O[Si](C)(C)C(C)(C)C)cc(OC)c1OC |  | inactive |  | 
COc1cc(/C=C\c2ccc(OC)c(O[Si](C)(C)C(C)(C)C)c2O[Si](C)(C)C(C)(C)C)cc(OC)c1OC |  | inactive |  | 
COc1ccc(/C=C\c2cc(OC)c(OC)c(OC)c2)c(O)c1O [COMBRETASTATIN A-1] | 2 | 0.99 µg/mL (≈ 2.98 µM) | 26 | 2.2
COc1cc([C@@H]2c3cc4c(cc3[C@H](O)[C@H]3COC(=O)[C@H]23)OCO4)cc(OC)c1OC | 3 |  |  | 13
COc1cc2c(c(OC)c1OC)-c1cc3c(cc1[C@@H](OC(C)=O)C1COC(=O)[C@H]1C2)OCO3 (some centres not stated) | 6 |  |  | 49
COc1ccc(CCc2cc(OC)c(OC)c(OC)c2)c(O)c1O | 3 |  |  | 13
COc1ccc(C[C@@H](O)c2cc(OC)c(OC)c(OC)c2)cc1O | 11 |  |  | 34
COc1cc(/C=C\c2ccc(OC)c(OC(C)=O)c2OC(C)=O)cc(OC)c1OC |  | 2.7 µg/mL (≈ 6.48 µM) |  | 
COc1cc(/C=C/c2ccc(OC)c(OC(C)=O)c2OC(C)=O)cc(OC)c1OC |  | 12 µg/mL (≈ 28.8 µM) |  | 
